Assay results: ChEMBL document CHEMBL1201862, “PubChem BioAssay data set” (2004)
The source made the active and inactive calls.

Columns and labels:
[1] = target: Nuclear receptor subfamily 5 group A member 2 (Homo sapiens, UniProt O00482); type: functional, cell-based;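 further: HEK293T cells transfected with LRH-1 and a StAR promoter luciferase reporter; potency for inhibitors that lower LRH-1 driven reporter light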
Steroidogenic factor 1 = Steroidogenic factor 1 (Homo sapiens, UniProt Q13285); experiment: Counterscreen for inverse agonists of the liver receptor homolog-1 (LRH-1; NR5A2): Luminescence-based cell-based high throughput dose response assay to identify inverse agonists of the Steroidogenic Factor 1 Nuclear Receptor (SF1; NR5A1).; type: functional
Sequence of Steroidogenic factor 1 (Q13285 whole entry): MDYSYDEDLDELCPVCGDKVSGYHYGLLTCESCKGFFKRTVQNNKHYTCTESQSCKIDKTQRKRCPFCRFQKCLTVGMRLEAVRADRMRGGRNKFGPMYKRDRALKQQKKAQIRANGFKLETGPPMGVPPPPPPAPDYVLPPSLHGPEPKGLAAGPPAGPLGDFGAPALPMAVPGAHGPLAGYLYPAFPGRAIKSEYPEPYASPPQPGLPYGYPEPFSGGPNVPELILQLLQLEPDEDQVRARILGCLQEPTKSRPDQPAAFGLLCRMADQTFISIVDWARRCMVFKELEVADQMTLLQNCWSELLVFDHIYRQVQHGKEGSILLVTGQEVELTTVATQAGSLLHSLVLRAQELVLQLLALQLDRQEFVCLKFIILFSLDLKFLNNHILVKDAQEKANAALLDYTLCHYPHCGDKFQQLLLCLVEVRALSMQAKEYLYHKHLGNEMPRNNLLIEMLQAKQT

[2] = nonselective StAR promoter luciferase inhibitors – cell-based, luminescence, luciferase reporter, counter-screen for LRH-1 inverse agonist project, dose response (AID 651969); type: functional
[3] = target: T1, Sentrin-specific protease 7 (Homo sapiens, UniProt Q9BQF6); type: functional;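 further: Luminescence-based dose-response confirmation of ultra-high-throughput screening hits, measuring inhibition of SENP7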
T1 sequence (Q9BQF6 whole entry): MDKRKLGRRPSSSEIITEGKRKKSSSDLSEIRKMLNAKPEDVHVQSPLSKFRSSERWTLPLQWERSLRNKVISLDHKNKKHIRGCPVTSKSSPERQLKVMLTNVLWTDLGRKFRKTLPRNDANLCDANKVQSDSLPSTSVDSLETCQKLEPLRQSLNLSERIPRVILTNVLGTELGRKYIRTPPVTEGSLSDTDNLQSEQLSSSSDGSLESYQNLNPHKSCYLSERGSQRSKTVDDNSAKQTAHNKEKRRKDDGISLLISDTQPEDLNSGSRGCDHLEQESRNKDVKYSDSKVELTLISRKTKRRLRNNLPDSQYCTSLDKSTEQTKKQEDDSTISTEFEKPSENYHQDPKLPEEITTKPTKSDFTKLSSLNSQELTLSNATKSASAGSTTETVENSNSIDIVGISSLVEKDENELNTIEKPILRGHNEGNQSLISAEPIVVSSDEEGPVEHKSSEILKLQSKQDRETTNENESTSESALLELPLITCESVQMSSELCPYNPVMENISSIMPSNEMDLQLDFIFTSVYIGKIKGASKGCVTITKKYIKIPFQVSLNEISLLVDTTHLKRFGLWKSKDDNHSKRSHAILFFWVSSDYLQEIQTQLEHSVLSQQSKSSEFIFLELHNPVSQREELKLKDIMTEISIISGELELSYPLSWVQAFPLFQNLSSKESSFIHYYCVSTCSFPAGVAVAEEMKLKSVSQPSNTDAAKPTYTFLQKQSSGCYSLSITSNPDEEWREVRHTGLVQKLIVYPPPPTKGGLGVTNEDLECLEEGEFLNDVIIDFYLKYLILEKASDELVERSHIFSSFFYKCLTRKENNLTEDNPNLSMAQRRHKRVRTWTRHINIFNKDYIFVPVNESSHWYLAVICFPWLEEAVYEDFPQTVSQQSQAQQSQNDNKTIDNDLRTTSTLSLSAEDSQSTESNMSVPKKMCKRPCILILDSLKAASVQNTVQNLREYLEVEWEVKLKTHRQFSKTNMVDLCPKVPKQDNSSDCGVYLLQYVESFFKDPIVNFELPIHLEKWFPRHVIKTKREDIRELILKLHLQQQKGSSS

Caspase-3 = target: T2, Caspase-3 (Homo sapiens, UniProt P42574); type: functional;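 further: Dose-response selectivity test against caspase-3 for candidate inhibitors of sentrin-specific proteases (SENPs)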
T2 sequence (P42574 whole entry): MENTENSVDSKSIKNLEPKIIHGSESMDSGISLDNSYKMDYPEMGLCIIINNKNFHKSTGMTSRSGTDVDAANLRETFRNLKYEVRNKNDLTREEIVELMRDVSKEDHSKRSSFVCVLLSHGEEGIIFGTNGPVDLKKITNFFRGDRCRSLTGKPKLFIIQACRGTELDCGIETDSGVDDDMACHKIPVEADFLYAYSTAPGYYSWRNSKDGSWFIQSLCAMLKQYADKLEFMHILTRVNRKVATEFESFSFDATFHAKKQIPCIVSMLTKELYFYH

[4] = target: T3, Sentrin-specific protease 6 (Homo sapiens, UniProt Q9GZR1); type: functional;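 further: Luminescence-based dose-response confirmatory assay of SENP6 inhibition, following up an ultra-high-throughput screen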
T3 sequence (Q9GZR1 whole entry): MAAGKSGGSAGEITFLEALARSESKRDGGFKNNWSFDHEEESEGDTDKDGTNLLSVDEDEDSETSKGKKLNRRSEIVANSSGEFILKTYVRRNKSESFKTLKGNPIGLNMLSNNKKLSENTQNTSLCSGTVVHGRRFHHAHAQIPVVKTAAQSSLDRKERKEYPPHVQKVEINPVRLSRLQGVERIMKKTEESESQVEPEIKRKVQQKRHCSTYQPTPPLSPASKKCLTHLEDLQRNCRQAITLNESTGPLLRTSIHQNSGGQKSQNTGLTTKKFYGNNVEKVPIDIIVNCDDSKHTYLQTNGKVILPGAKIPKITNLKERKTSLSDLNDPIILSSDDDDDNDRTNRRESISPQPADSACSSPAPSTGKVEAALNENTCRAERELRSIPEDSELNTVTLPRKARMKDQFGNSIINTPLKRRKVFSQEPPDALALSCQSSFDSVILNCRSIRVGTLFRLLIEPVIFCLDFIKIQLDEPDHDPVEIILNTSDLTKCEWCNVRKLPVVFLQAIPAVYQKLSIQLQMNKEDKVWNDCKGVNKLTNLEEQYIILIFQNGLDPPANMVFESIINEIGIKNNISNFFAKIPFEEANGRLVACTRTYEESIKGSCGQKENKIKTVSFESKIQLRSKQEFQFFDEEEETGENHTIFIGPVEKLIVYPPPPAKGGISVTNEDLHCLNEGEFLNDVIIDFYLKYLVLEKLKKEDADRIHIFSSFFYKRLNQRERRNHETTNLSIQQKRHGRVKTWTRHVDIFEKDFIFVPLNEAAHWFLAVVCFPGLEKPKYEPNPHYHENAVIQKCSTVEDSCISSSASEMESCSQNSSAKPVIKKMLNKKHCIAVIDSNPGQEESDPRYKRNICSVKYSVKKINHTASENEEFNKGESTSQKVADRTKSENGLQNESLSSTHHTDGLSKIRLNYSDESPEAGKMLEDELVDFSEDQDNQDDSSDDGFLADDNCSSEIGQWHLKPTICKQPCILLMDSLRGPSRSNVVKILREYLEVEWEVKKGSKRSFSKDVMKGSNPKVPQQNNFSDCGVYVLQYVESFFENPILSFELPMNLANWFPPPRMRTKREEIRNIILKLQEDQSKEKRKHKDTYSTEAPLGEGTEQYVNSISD

[5] = target: T4, Sentrin-specific protease 8 (Homo sapiens, UniProt Q96LD8); type: functional;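 further: luminescence read-out of SENP8 inhibition, dose-response confirmation following an ultra-high-throughput screen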
T4 sequence (Q96LD8 whole entry): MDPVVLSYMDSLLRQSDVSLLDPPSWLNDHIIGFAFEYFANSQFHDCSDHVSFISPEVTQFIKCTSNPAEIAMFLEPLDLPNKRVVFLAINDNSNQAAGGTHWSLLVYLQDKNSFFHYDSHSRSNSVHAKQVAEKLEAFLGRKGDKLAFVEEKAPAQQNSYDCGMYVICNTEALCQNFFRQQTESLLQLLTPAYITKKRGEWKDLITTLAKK

[6] = Luminescence Cell-Based Dose Confirmation HTS to Identify Inhibitors of Platelet Dense Granule Release. [Related pubchem assays: 1663 (Primary HTS), 1678 (Summary of Project)]; type: functional
[7] = viability loss in HeLa cells – cytotoxicity control for MgcRacGAP inhibitor project, dose response (AID 624300); type: functional
[8] = target: Luciferin 4-monooxygenase (Photinus pyralis, UniProt P08659); experiment: inhibition of purified Photinus pyralis luciferase – biochemical, luminescence, dose response (AID 1891)
Sequence of Luciferin 4-monooxygenase (P08659 whole entry): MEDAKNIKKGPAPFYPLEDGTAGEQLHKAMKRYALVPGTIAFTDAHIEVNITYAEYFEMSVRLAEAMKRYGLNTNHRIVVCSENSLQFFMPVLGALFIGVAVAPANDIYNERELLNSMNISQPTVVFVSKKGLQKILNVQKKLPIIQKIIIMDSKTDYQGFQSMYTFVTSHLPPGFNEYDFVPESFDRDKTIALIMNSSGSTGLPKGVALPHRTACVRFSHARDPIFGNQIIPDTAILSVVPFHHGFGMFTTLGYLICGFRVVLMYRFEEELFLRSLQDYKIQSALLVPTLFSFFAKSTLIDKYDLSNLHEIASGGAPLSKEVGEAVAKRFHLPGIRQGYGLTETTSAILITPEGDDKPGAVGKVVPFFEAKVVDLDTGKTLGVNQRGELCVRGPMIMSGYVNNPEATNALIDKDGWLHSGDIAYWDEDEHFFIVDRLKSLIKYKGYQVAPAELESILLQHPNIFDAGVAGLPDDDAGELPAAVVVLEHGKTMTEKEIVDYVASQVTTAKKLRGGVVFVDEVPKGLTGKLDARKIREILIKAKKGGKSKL

[9] = target: T5, Rac GTPase-activating protein 1 (Homo sapiens, UniProt Q9H0H5); experiment: blockers of MgcRacGAP-driven Rac1 GTP hydrolysis – biochemical, ADP Hunter fluorescence, primary and confirmatory, confirmation (AID 624330); type: functional
T5 sequence (Q9H0H5 whole entry): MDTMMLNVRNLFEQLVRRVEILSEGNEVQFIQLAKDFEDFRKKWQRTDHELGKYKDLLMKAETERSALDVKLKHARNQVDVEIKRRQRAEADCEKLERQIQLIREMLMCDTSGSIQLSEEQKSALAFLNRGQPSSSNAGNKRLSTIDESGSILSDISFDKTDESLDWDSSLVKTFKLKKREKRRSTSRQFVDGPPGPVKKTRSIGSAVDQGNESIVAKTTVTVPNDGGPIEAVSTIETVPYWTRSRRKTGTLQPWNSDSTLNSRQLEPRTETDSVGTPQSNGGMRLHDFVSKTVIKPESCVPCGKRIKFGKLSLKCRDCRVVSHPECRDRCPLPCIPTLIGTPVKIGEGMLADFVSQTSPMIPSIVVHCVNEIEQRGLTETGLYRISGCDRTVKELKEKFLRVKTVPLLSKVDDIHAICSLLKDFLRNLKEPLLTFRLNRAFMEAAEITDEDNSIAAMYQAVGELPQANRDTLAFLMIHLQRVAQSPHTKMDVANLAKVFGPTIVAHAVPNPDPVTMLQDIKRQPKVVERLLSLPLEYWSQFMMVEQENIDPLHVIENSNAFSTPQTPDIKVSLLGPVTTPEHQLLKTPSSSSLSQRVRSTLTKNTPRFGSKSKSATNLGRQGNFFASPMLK

[10] = target: T6, Polyadenylate-binding protein 1 (Homo sapiens, UniProt P11940); experiment: MLLE domain peptide-binding blockers, IC50 – biochemical, fluorescence polarization, FITC-PAM2 peptide, dose response (AID 602259); type: functional; settings: read-out: IC50_Mean
T6 sequence (P11940 whole entry, the tested form may be a part): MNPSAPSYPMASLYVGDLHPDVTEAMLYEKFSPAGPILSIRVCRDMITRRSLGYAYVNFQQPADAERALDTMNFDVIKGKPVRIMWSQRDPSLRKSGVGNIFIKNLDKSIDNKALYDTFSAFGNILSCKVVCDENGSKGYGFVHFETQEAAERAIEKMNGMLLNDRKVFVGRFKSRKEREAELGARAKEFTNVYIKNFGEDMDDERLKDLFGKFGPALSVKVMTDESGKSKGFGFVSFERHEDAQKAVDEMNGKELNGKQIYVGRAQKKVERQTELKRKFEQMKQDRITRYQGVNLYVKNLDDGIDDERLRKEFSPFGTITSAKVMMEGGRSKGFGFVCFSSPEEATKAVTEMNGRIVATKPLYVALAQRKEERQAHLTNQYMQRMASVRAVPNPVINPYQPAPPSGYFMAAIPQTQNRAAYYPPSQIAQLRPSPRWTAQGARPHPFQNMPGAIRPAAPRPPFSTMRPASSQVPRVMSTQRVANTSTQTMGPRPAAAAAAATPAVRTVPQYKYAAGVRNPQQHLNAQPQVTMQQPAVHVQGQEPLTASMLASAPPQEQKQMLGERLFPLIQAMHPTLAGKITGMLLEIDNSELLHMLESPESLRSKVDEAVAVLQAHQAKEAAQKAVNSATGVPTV

[11] = target: T6, Polyadenylate-binding protein 1; experiment: MLLE binding blockers, Cy5 peptide tracer – biochemical, fluorescence polarization, Cy5-PAM2 peptide, secondary, miRNA deadenylation inhibitor project, dose response (AID 602260); type: functional; settings: read-out: IC50_Mean

Sequence of Nuclear receptor subfamily 5 group A member 2 (O00482 whole entry): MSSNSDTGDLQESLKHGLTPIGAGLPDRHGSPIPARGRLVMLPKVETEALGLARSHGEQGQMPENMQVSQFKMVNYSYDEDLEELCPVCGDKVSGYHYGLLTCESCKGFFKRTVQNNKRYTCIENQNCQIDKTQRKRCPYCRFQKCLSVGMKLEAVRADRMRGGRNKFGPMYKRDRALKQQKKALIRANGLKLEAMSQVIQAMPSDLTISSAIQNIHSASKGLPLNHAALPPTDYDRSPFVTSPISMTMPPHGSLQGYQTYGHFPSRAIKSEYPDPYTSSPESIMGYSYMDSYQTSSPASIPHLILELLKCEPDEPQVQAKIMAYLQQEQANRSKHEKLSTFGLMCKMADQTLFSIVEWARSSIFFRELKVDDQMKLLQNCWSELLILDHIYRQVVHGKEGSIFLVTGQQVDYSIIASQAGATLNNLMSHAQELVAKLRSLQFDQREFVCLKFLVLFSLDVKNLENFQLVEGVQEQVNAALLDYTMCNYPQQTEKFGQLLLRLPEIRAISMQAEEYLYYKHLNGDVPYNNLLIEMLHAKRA

COc1ccc(C2(C)NC(=O)N(CC(=O)Nc3ccc(C)cc3Br)C2=O)cc1OC (configuration not stated)
IC50 [1]: 35.9 µM (inactive)
IC50 (Steroidogenic factor 1): 11.7 µM (inactive)
IC50 [2]: 35.9 µM (inactive)

O=C(Nc1cc(Cl)cc(Cl)c1)c1cccc(OC(F)F)c1
IC50 [3]: 11.8 µM (active)
IC50 (Caspase-3): > 100 µM (inactive)
IC50 [4]: 46.9 µM (active)
IC50 [5]: 53.9 µM (active)

COCCn1c(C)cc(/C=C(\C#N)C(=O)OCC(=O)Nc2ccc(S(N)(=O)=O)cc2)c1C
IC50 [1]: 35.9 µM (inactive)
IC50 (Steroidogenic factor 1): 3.99 µM (active)
IC50 [2]: 35.9 µM (inactive)

COc1ccc(C(=O)CNc2ccccc2Br)cc1
IC50 [3]: 6.34 µM (active)
IC50 (Caspase-3): 22 µM (active)
IC50 [4]: 27.4 µM (active)
IC50 [5]: 82.8 µM (active)

CCOc1ccccc1CN(CCc1ccc2c(c1)OCO2)Cc1ccccn1
EC50 [6]: > 112 µM (not active)
CC50 [7]: 100 µM (active)
EC50 [8]: > 112 µM (not active)
IC50 [9]: 172 µM (active)

c1ccc(Cn2nc(-c3ccccc3)nc2-c2ccccc2)cc1
IC50 [3]: 8.63 µM (active)
IC50 (Caspase-3): 32 µM (active)
IC50 [4]: 25 µM (active)
IC50 [5]: 30.4 µM (active)

COc1ccc(S(=O)(=O)N2CCN(CC(=O)Nc3ccc(C)c(F)c3)CC2)cc1
IC50 [1]: 6.16 µM (active)
IC50 (Steroidogenic factor 1): 3.05 µM (active)
IC50 [2]: 35.9 µM (inactive)

O=C(CCCN1C(=O)/C(=C/c2ccccc2Cl)SC1=S)NCCCN1CCOCC1
IC50 [3]: 14.8 µM (active)
IC50 (Caspase-3): 34.2 µM (active)
IC50 [4]: 36.7 µM (active)
IC50 [10]: > 66 µM (inactive)
IC50 [11]: > 66 µM (inactive)
IC50 [5]: 43.6 µM (active)

O=C(Nc1ccc(Br)cc1)Nc1ccccc1Cl
IC50 [3]: 7.21 µM (active)
IC50 (Caspase-3): 24.6 µM (active)
IC50 [4]: 7.19 µM (active)
IC50 [5]: 26.8 µM (active)

COc1cccc(C(=O)Oc2ccc3ccc(O)cc3c2)c1
IC50 [3]: 7.37 µM (active)
IC50 (Caspase-3): 40.1 µM (active)
IC50 [4]: 20.9 µM (active)
IC50 [5]: 17 µM (active)

COC(=O)c1ccc(NC(=O)CSc2nncn2-c2cccnc2)cc1
IC50 [1]: 35.9 µM (inactive)
IC50 (Steroidogenic factor 1): 14 µM (inactive)
IC50 [2]: 35.9 µM (inactive)

CCOc1ccc(NC(=O)CSc2nnc(C(C)C)n2CC)cc1
IC50 [1]: 35.9 µM (inactive)
IC50 (Steroidogenic factor 1): 6.03 µM (active)
IC50 [2]: 35.9 µM (inactive)

CC(O)(c1cccc(F)c1)c1nc(-c2ccc(S(C)(=O)=O)cc2)cs1 (configuration not stated)
IC50 [1]: 10.3 µM (inactive)
IC50 (Steroidogenic factor 1): 3.64 µM (active)
IC50 [2]: 35.9 µM (inactive)

N#Cc1cc([N+](=O)[O-])ccc1NC(=O)COC(=O)C1CCC(=O)N1 (configuration not stated)
IC50 [1]: 6.37 µM (active)
IC50 (Steroidogenic factor 1): 4.87 µM (active)
IC50 [2]: 35.9 µM (inactive)

CCCN1C(=O)/C(=C/c2cc(C)n(C)c2C)S/C1=N/c1ccc(OCC)cc1
CC50 [7]: 100 µM (active)
